Numbers after ± are expanded uncertainties.
Legend:
[1] = xn = mol fraction of the nth substance listed; settings: 101 kPa, Liquid, x2 = 0
[2] = 101 kPa, Liquid
[3] = Boiling temperature at pressure P; settings: 101 kPa; Liquid; Distillation

## CCCCCCCCCCO [decan-1-ol] + CCNCC
[1]; 293 K
  mass density: 830.1 ± 5.9 kg/m3
  speed of sound: 1408 ± 22 m/s
  viscosity: 13.41 ± 0.96 mPa·s
[1]; 303 K
  mass density: 822.1 ± 6.6 kg/m3
  speed of sound: 1375.2 ± 22 m/s
  viscosity: 9.262 ± 0.7 mPa·s
[1]; 313 K
  mass density: 815.7 ± 7.2 kg/m3
  speed of sound: 1344.8 ± 22 m/s
  viscosity: 6.515 ± 0.53 mPa·s

## CCCCCCCCCCO [decan-1-ol]
[2]; 293 K
  mass density: 830.1 ± 5.9 kg/m3
  speed of sound: 1408 ± 22 m/s
  viscosity: 13.41 ± 0.96 mPa·s
[2]; 303 K
  mass density: 822.1 ± 6.6 kg/m3
  speed of sound: 1375.2 ± 22 m/s
  viscosity: 9.262 ± 0.7 mPa·s
[2]; 313 K
  mass density: 815.7 ± 7.2 kg/m3
  speed of sound: 1344.8 ± 22 m/s
  viscosity: 6.515 ± 0.53 mPa·s
[3]
  Boiling temperature at pressure P: 229.80 ± 0.2 °C
